# Laboratory results as given in patent US20250034150A1, “BTK INHIBITORS” (BIOGEN MA INC., priority 2021, published 2025).
# Like-named read-outs stand apart in the source and are kept apart here.
# Experiments:
# BTK = target: T1, BTK (Homo sapiens, UniProt Q06187); assay: In Vitro BTK Kinase Assay: Btk-PolyGAT-LS Assay; assay type: biochemical; settings: active BTK enzyme 0.25 nM, polyGAT 100 nM, 30 minutes, TRF readout; read-out: In Vitro BTK Kinase Assay IC50 Score
# T1 construct: purchased Upstate 14-552
# T1 sequence (Q06187 whole entry): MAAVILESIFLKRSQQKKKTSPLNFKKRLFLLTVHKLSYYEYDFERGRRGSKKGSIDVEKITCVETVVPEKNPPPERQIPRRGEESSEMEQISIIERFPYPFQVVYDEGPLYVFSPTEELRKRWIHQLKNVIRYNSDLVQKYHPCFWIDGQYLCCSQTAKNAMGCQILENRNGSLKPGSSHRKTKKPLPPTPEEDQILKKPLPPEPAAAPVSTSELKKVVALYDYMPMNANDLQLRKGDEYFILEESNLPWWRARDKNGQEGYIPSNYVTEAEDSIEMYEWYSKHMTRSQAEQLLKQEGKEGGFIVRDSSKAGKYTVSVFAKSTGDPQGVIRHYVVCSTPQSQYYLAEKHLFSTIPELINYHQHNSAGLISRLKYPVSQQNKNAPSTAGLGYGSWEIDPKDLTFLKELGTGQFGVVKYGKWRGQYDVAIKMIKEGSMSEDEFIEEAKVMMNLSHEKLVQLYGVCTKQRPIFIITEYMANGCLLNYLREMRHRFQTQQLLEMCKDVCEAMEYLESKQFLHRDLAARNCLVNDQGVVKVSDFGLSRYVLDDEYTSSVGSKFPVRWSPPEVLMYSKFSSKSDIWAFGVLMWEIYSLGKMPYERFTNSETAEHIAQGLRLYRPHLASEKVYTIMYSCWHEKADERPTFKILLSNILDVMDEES
# Summary of the method: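 IC50 values came from a four-parameter fit, with DMSO controls as 100% activity and EDTA controls as 0%. The signal was TR-FRET from a Tb-PY20 antibody binding fluorescein-polyGAT (100 nM) phosphorylated by 0.25 nM BTK. Kinase reactions used 10 μM ATP, a 4-fold compound titration, and ran 30 minutes before EDTA stop.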
# [1] = tested on: CD69 expression on CD19+ B cells in human whole blood; assay: In Vitro whole blood CD69 Assay; assay type: cell-based; settings: B-cell, read-out: In Vitro HWB CD69 Assay IC50 Score
# Summary of the method: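 Heparinized healthy-donor human whole blood was preincubated with compound (0.1% DMSO) for 30 min at 37 °C. Stimulation used 0.1 µg/mL anti-IgD-dextran or 20 µg/mL rabbit F(ab′)2 anti-IgD for 18–22 h at 37 °C. CD69 on gated CD19+ B cells was then measured by flow cytometry.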
# [2] = human heparinized whole blood, anti-human IgD stimulation overnight, CD19+ B cells, flow cytometry
IC50 (BTK) [nM],"IC50 [1, 2] [nM]",SMILES,IC50 ([1]; Homo sapiens) [nM]
1 to 10,1000 to 10000,"CC(C)CN1CCN(Cc2ccc(-c3nc(-c4cnn(C)c4)cn4nccc34)cc2F)C(=O)C1 [Example 34, 1-(2-fluoro-4-(6-(1-methyl-1H-pyrazol-4-yl)pyrazolo[1,5-a]pyrazin-4-yl)benzyl)-4-isobutylpiperazin-2-one]",
1 to 10,1000 to 10000,"C[C@@H]1CN(c2nc(-c3cnn(C)c3)cn3nccc23)CC[C@@H]1CNC(=O)c1noc(C2(C)CC2)n1 (single isomer, unassigned) [Example 146]",
1 to 10,1000 to 10000,"Cn1cc(-c2cn3nccc3c(-c3cc(F)c(CNC(=O)c4cn(C(C)(C)C)nn4)cc3F)n2)cn1 [Example 98, 1-(tert-butyl)-N-(2,5-difluoro-4-(6-(1-methyl-1H-pyrazol-4-yl)pyrazolo[1,5-a]pyrazin-4-yl)benzyl)-1H-1,2,3-triazole-4-carboxamide]",
1 to 10,1000 to 10000,"Cn1cc(-c2cn3nccc3c(-c3ccc(CNC(=O)c4cn(C(C)(C)C)nn4)cc3F)n2)cn1 [Example 112, 1-(tert-butyl)-N-(3-fluoro-4-(6-(1-methyl-1H-pyrazol-4-yl)pyrazolo[1,5-a]pyrazin-4-yl)benzyl)-1H-1,2,3-triazole-4-carboxamide]",
< 1,< 1000,"Cn1cc(-c2cn3nccc3c(-c3ccc(CNC(=O)c4coc(C(C)(C)C)n4)c(F)c3)n2)cn1 [Example 12, 2-(tert-butyl)-N-(2-fluoro-4-(6-(1-methyl-1H-pyrazol-4-yl)pyrazolo[1,5-a]pyrazin-4-yl)benzyl)oxazole-4-carboxamide]",
< 1,1000 to 10000,"Cn1cc(-c2cn3nccc3c(-c3ccc(CNC(=O)c4cnn(C(C)(C)C)n4)c(C(F)F)c3)n2)cn1 [Example 104, 2-(tert-butyl)-N-(2-(difluoromethyl)-4-(6-(1-methyl-1H-pyrazol-4-yl)pyrazolo[1,5-a]pyrazin-4-yl)benzyl)-2H-1,2,3-triazole-4-carboxamide]",
< 1,< 1000,"Cn1cc(-c2cn3nccc3c(-c3cc(F)c(CNC(=O)c4noc(C(C)(C)C)n4)cc3F)n2)cn1 [Example 84, 5-(tert-butyl)-N-(2,5-difluoro-4-(6-(1-methyl-1H-pyrazol-4-yl)pyrazolo[1,5-a]pyrazin-4-yl)benzyl)-1,2,4-oxadiazole-3-carboxamide]",
1 to 10,1000 to 10000,"Cn1cc(-c2cc(-c3ccc(CNC(=O)c4ccn(C(C)(C)C)n4)c(F)c3)c3ccnn3c2)cn1 [Example 70, 1-(tert-butyl)-N-(2-fluoro-4-(6-(1-methyl-1H-pyrazol-4-yl)pyrazolo[1,5-a]pyridin-4-yl)benzyl)-1H-pyrazole-3-carboxamide]",
1 to 10,< 1000,"Cn1cc(-c2cn3nccc3c(-c3ccc(CNC(=O)c4cnn(C(C)(C)C)c4)cc3)n2)cn1 [Example 2, 1-(tert-butyl)-N-(4-(6-(1-methyl-1H-pyrazol-4-yl)pyrazolo[1,5-a]pyrazin-4-yl)benzyl)-1H-pyrazole-4-carboxamide]",
1 to 10,1000 to 10000,"Cn1cc(-c2cn3nccc3c(N3CC[C@H](CNC(=O)c4coc(C(C)(C)C)n4)[C@H](F)C3)n2)cn1 [Example 153, 2-(tert-butyl)-N-(((3S,4R)-3-fluoro-1-(6-(1-methyl-1H-pyrazol-4-yl)pyrazolo[1,5-a]pyrazin-4-yl)piperidin-4-yl)methyl)oxazole-4-carboxamide]",
10 to 1000,1000 to 10000,"Cn1cc(-c2cn3nccc3c(N3CCC(CN4CCN(CC(C)(C)C)CC4=O)CC3)n2)cn1 [Example 172, 1-((1-(6-(1-methyl-1H-pyrazol-4-yl)pyrazolo[1,5-a]pyrazin-4-yl)piperidin-4-yl)methyl)-4-neopentylpiperazin-2-one]",

# More lines, now with the values behind:
SMILES,IC50 (BTK) [nM],"IC50 [1, 2] [nM]",IC50 ([1]; Homo sapiens) [nM]
"Cc1cc(-c2cc(-c3cnn(C)c3)cn3nccc23)ccc1CNC(=O)c1noc(C2(C)CC2)n1 [Example 65, N-(2-methyl-4-(6-(1-methyl-1H-pyrazol-4-yl)pyrazolo[1,5-a]pyridin-4-yl)benzyl)-5-(1-methylcyclopropyl)-1,2,4-oxadiazole-3-carboxamide]",< 1,,< 1000
"Cn1cc(-c2cn3nccc3c(-c3ccc(CNC(=O)c4nnc(C(C)(C)C)o4)c(F)c3)n2)cn1 [Example 6, 5-(tert-butyl)-N-(2-fluoro-4-(6-(1-methyl-1H-pyrazol-4-yl)pyrazolo[1,5-a]pyrazin-4-yl)benzyl)-1,3,4-oxadiazole-2-carboxamide]",< 1,,< 1000
"Cn1cc(-c2cn3nccc3c(-c3cc(F)c(CNC(=O)c4coc(C(C)(C)C)n4)cc3F)n2)cn1 [Example 95, 2-(tert-butyl)-N-(2,5-difluoro-4-(6-(1-methyl-1H-pyrazol-4-yl)pyrazolo[1,5-a]pyrazin-4-yl)benzyl)oxazole-4-carboxamide]",1 to 10,1000 to 10000,
"Cn1cc(-c2cn3nccc3c(-c3ccc4c(c3)CN(CC(F)(F)F)CC[C@H]4NC(=O)c3cn(C(C)(C)C)nn3)n2)cn1 [Example 40, (R)-1-(tert-butyl)-N-(8-(6-(1-methyl-1H-pyrazol-4-yl)pyrazolo[1,5-a]pyrazin-4-yl)-2-(2,2,2-trifluoroethyl)-2,3,4,5-tetrahydro-1H-benzo[c]azepin-5-yl)-1H-1,2,3-triazole-4-carboxamide]",1 to 10,< 1000,
"Cc1cc(-c2nc(-c3cnn(C)c3)cc3nccn23)ccc1CN1Cc2nc(C(C)(C)C)sc2C1=O [Example 38, 2-(tert-butyl)-5-(2-methyl-4-(7-(1-methyl-1H-pyrazol-4-yl)imidazo[1,2-c]pyrimidin-5-yl)benzyl)-4,5-dihydro-6H-pyrrolo[3,4-d]thiazol-6-one]",< 1,1000 to 10000,
"Cn1cc(-c2cc(-c3ccc(CNC(=O)c4noc(C5(C)CC5)n4)cc3)n3cnnc3c2)cn1 [Example 76, N-(4-(7-(1-methyl-1H-pyrazol-4-yl)-[1,2,4]triazolo[4,3-a]pyridin-5-yl)benzyl)-5-(1-methylcyclopropyl)-1,2,4-oxadiazole-3-carboxamide]",10 to 1000,1000 to 10000,
"Cc1cc(-c2nc(N3CCOCC3)cn3nccc23)ccc1CNC(=O)c1cn(C(C)(C)C)nn1 [Example 120, 1-(tert-butyl)-N-(2-methyl-4-(6-morpholinopyrazolo[1,5-a]pyrazin-4-yl)benzyl)-1H-1,2,3-triazole-4-carboxamide]",1 to 10,1000 to 10000,
"CC1CC(CNC(=O)c2noc(C3(C)CC3)n2)CCN1c1nc(-c2cnn(C)c2)cn2nccc12 (stereo not drawn) [Example 139, N-((2-methyl-1-(6-(1-methyl-1H-pyrazol-4-yl)pyrazolo[1,5-a]pyrazin-4-yl)piperidin-4-yl)methyl)-5-(1-methylcyclopropyl)-1,2,4-oxadiazole-3-carboxamide]",1 to 10,1000 to 10000,
"Cn1cc(-c2cn3ncnc3c(N3CCC(CNC(=O)c4noc(C(C)(C)C)n4)CC3)n2)cn1 [Example 73, 5-(tert-butyl)-N-((1-(6-(1-methyl-1H-pyrazol-4-yl)-[1,2,4]triazolo[1,5-a]pyrazin-8-yl)piperidin-4-yl)methyl)-1,2,4-oxadiazole-3-carboxamide]",1 to 10,1000 to 10000,
"Cn1cc(-c2cc3nccn3c(-c3ccc(CNC(=O)c4cnn(C(C)(C)C)c4)cc3)n2)cn1 [Example 57, 1-(tert-butyl)-N-(4-(7-(1-methyl-1H-pyrazol-4-yl)imidazo[1,2-c]pyrimidin-5-yl)benzyl)-1H-pyrazole-4-carboxamide]",1 to 10,1000 to 10000,
"Cc1cc(-c2nc(-c3cnn(C)c3)cn3nccc23)ccc1CN1CCN(CC(C)C)C(C)C1=O (stereo not drawn) [Example 36, 4-isobutyl-3-methyl-1-(2-methyl-4-(6-(1-methyl-1H-pyrazol-4-yl)pyrazolo[1,5-a]pyrazin-4-yl)benzyl)piperazin-2-one]",1 to 10,1000 to 10000,
"CC(C)(C)c1nc(C(=O)NCc2ccc(-c3nc(N4CCOCC4)cn4nccc34)cc2)no1 [Example 23, 5-(tert-butyl)-N-(4-(6-morpholinopyrazolo[1,5-a]pyrazin-4-yl)benzyl)-1,2,4-oxadiazole-3-carboxamide]",1000 to 10000,1000 to 10000,
"Cn1cc(-c2cn3nccc3c(-c3cc(F)c(CNC(=O)c4nnn(C(C)(C)C)n4)cc3F)n2)cn1 [Example 99, 2-(tert-butyl)-N-(2,5-difluoro-4-(6-(1-methyl-1H-pyrazol-4-yl)pyrazolo[1,5-a]pyrazin-4-yl)benzyl)-2H-tetrazole-5-carboxamide]",< 1,< 1000,
"Cn1cc(-c2cn3nccc3c(-c3ccc(CNC(=O)c4nc(C(C)(C)C)no4)cc3)n2)cn1 [Example 19, 3-(tert-butyl)-N-(4-(6-(1-methyl-1H-pyrazol-4-yl)pyrazolo[1,5-a]pyrazin-4-yl)benzyl)-1,2,4-oxadiazole-5-carboxamide]",< 1,< 1000,
"Cn1cc(-c2cn3nccc3c(-c3ccc(CNC(=O)c4cnn(C(C)(C)C)c4)c(F)c3)n2)cn1 [Example 10, 1-(tert-butyl)-N-(2-fluoro-4-(6-(1-methyl-1H-pyrazol-4-yl)pyrazolo[1,5-a]pyrazin-4-yl)benzyl)-1H-pyrazole-4-carboxamide]",< 1,< 1000,
"C[C@@H]1C[C@@H](CNC(=O)c2cn(C(C)(C)C)nn2)CCN1c1nc(-c2cnn(C)c2)cn2nccc12 (single isomer, unassigned) [Example 143]",1 to 10,1000 to 10000,
